This passage reports IC50 results from patent US9796704B2, “Substituted quinazolines as receptor-type kinase inhibitors” (Symphony Evolution, Inc., priority 2002, dated 2017).

Assay [1] addresses EGFR (Homo sapiens (Human), UniProt P00533). The assay can be described thus: EGFR kinase inhibition, luciferase-coupled chemiluminescent assay (LCCA). To be noted: read-out: EGFR IC50.
Description: Kinase activity and compound inhibition are investigated using one or more of the three assay formats described below. The ATP concentrations are selected near its Michaelis-Menten constant (KM) for each individual kinase. Dose-response experiments are performed at ten different inhibitor concentrations in a 384-well plate format. […] Typically H is close to unity.
In the LCCA assays, kinase activity is measured by the ATP consumption that is accurately measured by luciferase-coupled chemiluminescence. Greiner 384-well white clear bottom medium binding plates are used for LCCA. Briefly the kinase reaction is initiated by mixing compounds, ATP and kinases in a 20 μL volume. At the end of the kinase reaction, a 20 μL luciferase-luciferin mix is added and the chemiluminescent signal is read on a Wallac Victor^2 reader.
The target of assay [2] is KDR (Homo sapiens (Human), UniProt P35968). The assay can be described thus: KDR kinase inhibition, luciferase-coupled chemiluminescent assay (LCCA). To be noted: read-out: KDR IC50.
The target of assay [3] is EphB4 (Homo sapiens (Human), UniProt P54760). The assay can be described thus: EphB4 kinase inhibition, 33P phosphoryl transfer assay (radiometric). The assay is classed as biochemical.
Assay [4] concerns the target EphA2 (Homo sapiens (Human), UniProt P29317). The assay can be described thus: EphA2 kinase inhibition, luciferase-coupled chemiluminescent assay (LCCA). To be noted: read-out: EphA2 IC50.

Sequence of EphA2 (P29317 598-890): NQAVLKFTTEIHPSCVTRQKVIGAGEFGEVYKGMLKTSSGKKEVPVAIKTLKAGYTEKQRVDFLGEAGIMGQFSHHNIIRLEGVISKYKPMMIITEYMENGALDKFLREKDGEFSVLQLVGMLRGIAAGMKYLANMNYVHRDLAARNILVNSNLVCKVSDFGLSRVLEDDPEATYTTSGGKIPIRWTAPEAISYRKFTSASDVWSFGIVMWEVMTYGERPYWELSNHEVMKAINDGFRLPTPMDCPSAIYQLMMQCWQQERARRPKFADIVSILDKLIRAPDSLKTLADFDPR
Sequence of EphB4 (P54760 605-890): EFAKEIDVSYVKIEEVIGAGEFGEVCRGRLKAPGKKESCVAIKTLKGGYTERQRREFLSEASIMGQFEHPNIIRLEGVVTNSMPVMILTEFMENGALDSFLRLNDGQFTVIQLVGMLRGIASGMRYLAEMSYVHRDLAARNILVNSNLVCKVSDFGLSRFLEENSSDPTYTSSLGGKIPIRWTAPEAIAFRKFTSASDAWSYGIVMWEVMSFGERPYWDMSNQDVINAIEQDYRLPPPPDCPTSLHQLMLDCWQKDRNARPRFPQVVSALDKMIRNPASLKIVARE
Sequence of KDR (P35968 807-1356): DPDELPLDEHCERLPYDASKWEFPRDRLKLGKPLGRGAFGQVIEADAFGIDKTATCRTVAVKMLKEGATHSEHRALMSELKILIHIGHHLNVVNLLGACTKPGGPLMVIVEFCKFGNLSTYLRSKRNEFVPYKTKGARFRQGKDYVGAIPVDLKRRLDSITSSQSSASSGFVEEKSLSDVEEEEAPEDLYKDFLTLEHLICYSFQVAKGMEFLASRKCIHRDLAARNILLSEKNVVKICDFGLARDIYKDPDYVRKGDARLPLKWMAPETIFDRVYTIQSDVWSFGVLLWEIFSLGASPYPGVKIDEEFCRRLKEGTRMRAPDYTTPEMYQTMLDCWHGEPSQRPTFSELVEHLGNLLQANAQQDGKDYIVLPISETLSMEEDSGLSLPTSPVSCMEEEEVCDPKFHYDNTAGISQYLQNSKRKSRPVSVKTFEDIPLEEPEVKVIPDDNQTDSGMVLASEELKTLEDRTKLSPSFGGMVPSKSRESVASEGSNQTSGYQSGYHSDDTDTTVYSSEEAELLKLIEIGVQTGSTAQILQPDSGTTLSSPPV

Consider `COc1cc2c(Nc3cc(F)c(F)cc3F)ncnc2cc1O[C@@H]1CO[C@@H]2[C@H]1OC[C@H]2F` [Example 99, 1,4:3,6-dianhydro-2-deoxy-2-fluoro-5-O-{6-(methyloxy)-4-[(2,4,5-trifluorophenyl)amino]quinazolin-7-yl}-D-iditol], for which the IC50 in assay [1], in assay [2], in assay [3] and in assay [4] was < 50 nM throughout.

For `COc1cc2c(Nc3ccc(Cl)c(Cl)c3)ncnc2cc1OCc1nc(N2CCN(C)CC2)no1` [Example 218, N-(3,4-dichlorophenyl)-6-(methyloxy)-7-({[3-(4-methylpiperazin-1-yl)-1,2,4-oxadiazol-5-yl]methyl}oxy)quinazolin-4-amine], the IC50 (in general, the concentration that gives 50% inhibition) in assay [1] is < 50 nM; in assay [2], < 50 nM; in assay [3], < 50 nM; in assay [4], 50 to 1000 nM.

With `COc1cc2c(Nc3cc(Cl)c(Br)cc3F)ncnc2cc1O[C@@H]1CO[C@@H]2[C@H]1OC[C@H]2F` [Example 98, 1,4:3,6-dianhydro-5-O-[4-[(4-bromo-5-chloro-2-fluorophenyl)amino]-6-(methyloxy)quinazolin-7-yl]-2-deoxy-2-fluoro-D-iditol], the IC50 in assay [1], in assay [2], in assay [3] and in assay [4] was < 50 nM in each case.

With `CCN1CCC(c2nc(COc3cc4ncnc(Nc5ccc(Cl)c(Cl)c5)c4cc3OC)cs2)CC1` [Example 242, N-(3,4-dichlorophenyl)-7-({[2-(1-ethylpiperidin-4-yl)-1,3-thiazol-4-yl]methyl}oxy)-6-(methyloxy)quinazolin-4-amine], the IC50 in assay [1], in assay [2], in assay [3] and in assay [4] was < 50 nM in each case.

For the molecule `COc1cc2c(Nc3ccc(Cl)c(Cl)c3)ncnc2cc1OCc1nc(CN2CCCN(C)CC2)cs1` [Example 210, N-(3,4-dichlorophenyl)-7-[({4-[(4-methyl-1,4-diazepan-1-yl)methyl]-1,3-thiazol-2-yl}methyl)oxy]-6-(methyloxy)quinazolin-4-amine], the IC50 in assay [1], in assay [2], in assay [3] and in assay [4] was < 50 nM throughout.

Consider `COc1cc2c(Nc3ccc(Cl)c(Cl)c3)ncnc2cc1OCc1noc(C2CCN(C(=O)OC(C)(C)C)CC2)n1` [Example 197, 1,1-dimethylethyl 4-[3-({[4-[(3,4-dichlorophenyl)amino]-6-(methyloxy)quinazolin-7-yl]oxy}methyl)-1,2,4-oxadiazol-5-yl]piperidine-1-carboxylate], for which the IC50 in assay [1] is < 50 nM; in assay [2], < 50 nM; in assay [3] it was < 50 nM; in assay [4], 50 to 1000 nM.

With `COc1cc2c(Nc3ccc(Cl)c(Cl)c3)ncnc2cc1OCC1CN(C)CCCO1` (centres unmarked) [Example 155, N-(3,4-dichlorophenyl)-7-{[(4-methyl-1,4-oxazepan-2-yl)methyl]oxy}-6-(methyloxy)quinazolin-4-amine], the IC50 in assay [1], in assay [2] and in assay [3] was < 50 nM throughout.

As for `COc1cc2c(Nc3ccc(Cl)c(Cl)c3)ncnc2cc1OCc1nc(-c2ccncc2)cs1` [Example 203, N-(3,4-dichlorophenyl)-6-(methyloxy)-7-{[(4-pyridin-4-yl-1,3-thiazol-2-yl)methyl]oxy}quinazolin-4-amine], the IC50 in assay [1], in assay [2], in assay [3] and in assay [4] was < 50 nM each time.

For the molecule `COc1cc2c(Nc3ccc(Cl)c(Cl)c3)ncnc2cc1OCc1cc(Br)cc(Br)c1` [Example 232, 7-{[(3,5-dibromophenyl)methyl]oxy}-N-(3,4-dichlorophenyl)-6-(methyloxy)quinazolin-4-amine], the IC50 in assay [1] is < 50 nM; in assay [2] it was < 50 nM; in assay [3], 50 to 1000 nM; in assay [4], 50 to 1000 nM.

As to `CCN1CCCC(c2nc(COc3cc4ncnc(Nc5ccc(Cl)c(Cl)c5)c4cc3OC)no2)C1` (centres unmarked) [Example 239, N-(3,4-dichlorophenyl)-7-({[5-(1-ethylpiperidin-3-yl)-1,2,4-oxadiazol-3-yl]methyl}oxy)-6-(methyloxy)quinazolin-4-amine], the half-inhibitory concentration (IC50) in assay [1] is < 50 nM; in assay [2], < 50 nM; in assay [3] it was 50 to 1000 nM; in assay [4], 50 to 1000 nM.

On to `COc1cc2c(Nc3cc(F)c(Br)c(Cl)c3)ncnc2cc1O[C@@H]1CO[C@@H]2[C@H]1OC[C@H]2F` [Example 104, 1,4:3,6-dianhydro-5-O-[4-[(4-bromo-3-chloro-5-fluorophenyl)amino]-6-(methyloxy)quinazolin-7-yl]-2-deoxy-2-fluoro-D-iditol], for which the half-maximal inhibitory concentration (IC50) in assay [1], in assay [2] and in assay [3] was < 50 nM each time.

Consider `COc1cc2c(Nc3ccc(Cl)c(Cl)c3)ncnc2cc1OCc1noc(-c2ccccc2)n1` [Example 235, N-(3,4-dichlorophenyl)-6-(methyloxy)-7-{[(5-phenyl-1,2,4-oxadiazol-3-yl)methyl]oxy}quinazolin-4-amine], for which the IC50 is < 50 nM in assay [1], < 50 nM in assay [2], < 50 nM in assay [3] and 50 to 1000 nM in assay [4].

For the molecule `COc1cc2c(Nc3cc(Cl)c(Cl)c(Cl)c3)ncnc2cc1O[C@@H]1CO[C@@H]2[C@H]1OC[C@H]2F` [Example 107, 1,4:3,6-dianhydro-2-deoxy-2-fluoro-5-O-{6-(methyloxy)-4-[(3,4,5-trichlorophenyl)amino]quinazolin-7-yl}-D-iditol], the IC50 in assay [1], in assay [2], in assay [3] and in assay [4] was < 50 nM in each case.

For the molecule `COc1cc2c(Nc3ccc(Cl)c(Cl)c3)ncnc2cc1OCc1noc(CN(C)C)n1` [Example 138, N-(3,4-dichlorophenyl)-7-[({5-[(dimethylamino)methyl]-1,2,4-oxadiazol-3-yl}methyl)oxy]-6-(methyloxy)quinazolin-4-amine], the IC50 in assay [1], in assay [2] and in assay [3] was < 50 nM each time.

`COc1cc2c(Nc3ccc(Br)cc3Cl)ncnc2cc1O[C@@H]1CO[C@@H]2[C@H]1OC[C@H]2F` [Example 96, 1,4:3,6-dianhydro-5-O-[4-[(4-bromo-2-chlorophenyl)amino]-6-(methyloxy)quinazolin-7-yl]-2-deoxy-2-fluoro-D-iditol]: the IC50 in assay [1], in assay [2], in assay [3] and in assay [4] was < 50 nM each time.

For `COc1cc2c(Nc3cc(F)cc(F)c3)ncnc2cc1O[C@@H]1CO[C@@H]2[C@H]1OC[C@H]2F` [Example 94, 1,4:3,6-dianhydro-2-deoxy-5-O-[4-[(3,5-difluorophenyl)amino]-6-(methyloxy)quinazolin-7-yl]-2-fluoro-D-iditol], the half-maximal inhibitory concentration (IC50) in assay [1], in assay [2], in assay [3] and in assay [4] was < 50 nM throughout.

Consider “N-(3,4-dichlorophenyl)-6-(methyloxy)-7-{[(5-piperidin-2-yl-1,2,4-oxadiazol-3-yl)methyl]oxy}quinazolin-4-amine hydrochloride [Example 31]”, for which the IC50 in assay [1], in assay [2] and in assay [3] was < 50 nM each time.

`COc1cc2c(Nc3ccc(C(F)(F)F)cc3Br)ncnc2cc1O[C@@H]1CO[C@@H]2[C@H]1OC[C@H]2F` [Example 125, 1,4:3,6-dianhydro-5-O-[4-{[2-bromo-4-(trifluoromethyl)phenyl]amino}-6-(methyloxy)quinazolin-7-yl]-2-deoxy-2-fluoro-D-iditol]: the IC50 in assay [1], in assay [2], in assay [3] and in assay [4] was < 50 nM in each case.

Turning to `COc1cc2c(Nc3ccc(F)c(C(F)(F)F)c3)ncnc2cc1O[C@@H]1CO[C@@H]2[C@H]1OC[C@H]2F` [Example 89, 1,4:3,6-dianhydro-2-deoxy-2-fluoro-5-O-[4-{[4-fluoro-3-(trifluoromethyl)phenyl]amino}-6-(methyloxy)quinazolin-7-yl]-D-iditol], the IC50 in assay [1], in assay [2] and in assay [4] was < 50 nM throughout.

Consider `COc1cc2c(Nc3ccc(Cl)c(Cl)c3F)ncnc2cc1O[C@@H]1CO[C@@H]2[C@H]1OC[C@H]2F` [Example 97, 1,4:3,6-dianhydro-2-deoxy-5-O-[4-[(3,4-dichloro-2-fluorophenyl)amino]-6-(methyloxy)quinazolin-7-yl]-2-fluoro-D-iditol], for which the IC50 in assay [1], in assay [2] and in assay [3] was < 50 nM throughout.

Take `COc1cc2c(Nc3ccc(Cl)c(Cl)c3)ncnc2cc1OCc1nc(CN2CCN(C)CC2)no1` [Example 140, N-(3,4-dichlorophenyl)-6-(methyloxy)-7-[({3-[(4-methylpiperazin-1-yl)methyl]-1,2,4-oxadiazol-5-yl}methyl)oxy]quinazolin-4-amine]: the IC50 in assay [1], in assay [2] and in assay [3] was < 50 nM each time.

As for `COc1cc2c(Nc3ccc(Cl)c(Cl)c3)ncnc2cc1OCC1CN(C(=O)OC(C)(C)C)CCO1` (centres unmarked) [Example 148, 1,1-dimethylethyl 2-({[4-[(3,4-dichlorophenyl)amino]-6-(methyloxy)quinazolin-7-yl]oxy}methyl)morpholine-4-carboxylate], the IC50 in assay [1], in assay [2] and in assay [3] was < 50 nM each time.
